Test results as given in US7795242B2, “Methods and compositions for immunomodulation” (The Brigham and Women's Hospital, Inc., priority 2003, dated 2010).

Columns and labels:
CD1d [1] = target: T1, CD1d (Homo sapiens, UniProt P15813); assay: Competition with αGalCer-mediated NK T cell activation on plate-bound recombinant CD1d; type: cell-based; conditions: FIG. 8; for block of αGalCer-mediated NK T activation: compound added in excess to plate-bound recombinant CD1d
Description: Next, to determine whether PPBF could compete with αGalCer-mediated NK T cell responses, we used an in vitro assay of PPBF added to recombinant CD1d proteins bound to a plate.

IL1AP T cells = assay: Proliferative response of IL1AP T cells stimulated with antigen and dendritic cells ([3H]-thymidine incorporation); type: cell-based, human; conditions: for stimulation (proliferation) of IL1AP T cells: DC as APC, FIG. 1A, 2B, 6E, 7A
Experimental: The antigens provided herein were identified with T-cell activation assays performed using purified fractions in order to determine their relative ability to activate T-cells. These assays were carried out essentially as described in U.S. Pat. Nos. 5,679,347; 5,853,737; and 6,238,676, and in Rosat et al. J. Immunol. 162:366-371, 1999. Other procedures are well-known in the art.
To generate CD1-restricted T cells that recognize novel antigens, we stimulated human peripheral blood lymphocytes using a method that reduces the outgrowth of MHC-restricted T cells and favors the detection of CD1-restricted T cells. This involves the repeated stimulation of lymphocytes with lipid antigens with monocyte-derived dendritic cells (DC) from donors that differ in their MHC protein expression, so that T cells responding to DC with a given MHC class I or II molecule will not be repeatedly stimulated and therefore […] in T cell lines produced after many rounds of stimulation. DCs were prepared from the peripheral blood of healthy donors by centrifugation over Ficoll-Hypaque, adherence of the mononuclear cells to plastic tissue culture flasks, culture of adherent cells with 300 U/ml GM-CSF and 200 U/ml IL-4 for 3 days, followed by irradiation (3300 R).
DC and T cells were cultured at a 1:5 ratio in the presence of 1 μg/ml LKKRRL mixture to yield T cell lines. T cells lines were used to generate clones by culturing T cells at approximately 1 cell per well with phytohemagglutinin, peripheral blood mononuclear cells, transformed B cell lines and 2 nM IL-2. This protocol yielded a polyclonal T cell line IL1AP and several clones derived there from, which are named IL1AP.15, IL1AP.31.
To assay the proliferative responses of IL1AP T cells, 5*10^4 Polyclonal IL1AP T cells were stimulated with 3*10^4 DC and LKKRRL mixture (FIG. 1A). […] C1R cells transfected with the vector pSRα-NEO, containing the cDNAs encoding human CD1a, CD1b, CD1c, CD1d, or no insert (C1R mock) were used as alternative APC for the stimulation of polyclonal T cells with LKKRRL mixture (FIG. 1C). […]

CD1d [2] = target: T1, CD1d; conditions: Im et al., J Biol Chem., 279:299-310, 2004; cited from earlier work
J.RT3.ABd cells = assay: IL-2 release by J.RT3 cells transfected with IL1AP TCR α and β chains (J.RT3.ABd); type: cell-based; conditions: FIG. 11A
Experimental: We transfected the full-length TCR α and β chains from IL1AP cells into J.RT3 cells to generate a TCR-expressing reporter cell line (J.RT3.ABd). […] To determine whether PPBF could activate through intact CD3 complexes that were reconstituted by transfection of a TCR with irrelevant antigen specificity, J.RT3-T3.5 cells transfected with the TCR α and β chains of the CD8-2 cell line (J.RT3-CD8-2) that recognizes the mycobacterial lipopeptides DDM were tested for IL-2 release upon stimulation with DDM or PPBF.

T cell line IL1AP = assay: IL-2 release by PPBF-reactive T cell line IL1AP with DC as APC (HT-2 bioassay); type: cell-based, human; conditions: IL-2 measured 24 h after stimulation; FIG. 7A
Experimental: Because αGalCer was previously known to function as a potent activator of CD1d-restricted T cell clones known as NK T cells, we sought to determine whether PPBF-reactive T cells and αGalCer-reactive T cells cross react. The PPBF-reactive T cell line IL1AP and the αGalCer-reactive T cell clone J3N.5 were each stimulated with αGalCer and PPBF using DC as APC. IL-2 release was measured 24 h after stimulation. The IL-2 concentration in 50 μl of culture supernatants, harvested 24 hours after T cell stimulation, was determined by adding 10^4 IL-2 starved HT-2 cells in […] medium, and a 6 h pulse after a 24 h incubation.

polyclonal lymphocytes = assay: Proliferative response of polyclonal lymphocytes and T cell clones; type: cell-based, human; conditions: data not shown
Experimental: To determine whether PPBF non-selectively activated polyclonal lymphocyte populations or selectively activated antigen-specific clones present at low precursor frequency in vivo, polyclonal lymphocytes were tested for their proliferative response to PPBF.

3-methyl-PPBF
degree and titer of inhibition of αGalCer-mediated NK T activation compared with 2,6-ANS (CD1d [1]): comparable to that of 2,6-anilonapthalene sulfonic acid
block of αGalCer-mediated NK T activation (CD1d [1]): substantially block αGalCer-mediated NK T activation in a dose-dependent manner
capacity to stimulate IL1AP T cell proliferation relative to PPBF (IL1AP T cells; FIG. 6E): stimulated T cells more potently than PPBF

O=S(=O)(O)c1ccc2cc(Nc3ccccc3)ccc2c1 [2,6-anilonapthalene sulfonic acid]
binding to CD1d (CD1d [2]): has been shown to bind CD1d

Cc1c(C)c(S(=O)(=O)Oc2ccccc2)c(C)c2c1OC(C)(C)C2 [PPBF, phenyl-2,2,4,6,7-pentamethyldihydrobenzofuran-5-sulfonyl]
degree and titer of inhibition of αGalCer-mediated NK T activation compared with 2,6-ANS (CD1d [1]): comparable to that of 2,6-anilonapthalene sulfonic acid
block of αGalCer-mediated NK T activation (CD1d [1]): substantially block αGalCer-mediated NK T activation in a dose-dependent manner
IL-2 production by J.RT3.ABd cells upon stimulation (J.RT3.ABd cells): conferred the ability to produce IL-2 upon stimulation with PPBF
stimulation (proliferation) of IL1AP T cells (IL1AP T cells): Only the T cell line IL1AP and clones derived therefrom were activated by PPBF
stimulation (proliferation) of IL1AP T cells (IL1AP T cells; listed as Synthetic PPBF): potently stimulate

CCCCCCCCCCCCCCCCCCCCCCCCCC(=O)N[C@@H](CO[C@H]1O[C@H](CO)[C@H](O)[C@H](O)[C@H]1O)[C@H](O)[C@H](O)CCCCCCCCCCCCCC [αGalCer, α-galactosyl ceramide]
recognition by IL1AP T cells (IL-2 release) (T cell line IL1AP): did not recognize αGalCer

phytohemagglutinin [reference compound]
activation of polyclonal T cells and T cell clones (proliferative response) (polyclonal lymphocytes): activated by the mitogen phytohemagglutinin
